The values that follow come from patent publication US10647713B2 (Nimbus Lakshmi, Inc., priority 2016, dated 2020).

Some results are limits rather than exact numbers.

The target in the test is human TYK2 (JH2domain-pseudokinase) (Homo sapiens (Human), UniProt P29597). Description: TYK2 JH2 Domain Binding Assay (KINOMEscan, DiscoveRx). The conditions noted are these: 11-point dilution, duplicate. The method, boiled down: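 Kd from duplicate 11-point 3-fold dilutions starting at 30,000 nM, fitted by Hill equation with slope fixed at −1. Compounds (final 0.9% DMSO) displace DNA-tagged HEK293-expressed TYK2 JH2 fusion (<0.1 nM) from ligand-coated beads over 1 h at room temperature; eluted kinase read by qPCR.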
Chain of human TYK2 (JH2domain-pseudokinase) (P29597 556-888): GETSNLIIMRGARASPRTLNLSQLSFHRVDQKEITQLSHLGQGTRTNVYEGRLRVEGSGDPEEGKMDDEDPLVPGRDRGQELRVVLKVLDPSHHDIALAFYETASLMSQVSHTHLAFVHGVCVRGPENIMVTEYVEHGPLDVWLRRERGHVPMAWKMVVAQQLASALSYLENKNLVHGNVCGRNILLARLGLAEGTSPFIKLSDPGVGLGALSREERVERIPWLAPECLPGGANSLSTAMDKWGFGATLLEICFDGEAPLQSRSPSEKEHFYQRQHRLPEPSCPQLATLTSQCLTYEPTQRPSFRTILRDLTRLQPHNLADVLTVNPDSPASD
As to `CS(=O)(=O)c1cc(F)ccc1Nc1cc(Nc2ccc(OC3CCOCC3)c(C#N)n2)nc2[nH]c(C(F)F)nc12` [I-625, 6-((2-(difluoromethyl)-7-((4-fluoro-2-(methylsulfonyl)phenyl)amino)-3H-imidazo[4,5-b]pyridin-5-yl)amino)-3-((tetrahydro-2H-pyran-4-yl)oxy)picolinonitrile], the Kd lay in the range of 100 to 500 pM. Molecule `Cc1nc2c(Nc3ccc(F)cc3S(C)(=O)=O)cc(Nc3ccc(OC4CCOCC4)c(C#N)n3)nc2[nH]1` [I-626, 6-((7-((4-fluoro-2-(methylsulfonyl)phenyl)amino)-2-methyl-3H-imidazo[4,5-b]pyridin-5-yl)amino)-3-((tetrahydro-2H-pyran-4-yl)oxy)picolinonitrile] registered a Kd of under 100 pM. Then `COc1c(Nc2cc(Nc3cccc(C(F)(F)F)n3)nc3[nH]c(C)nc23)cccc1-c1ncnn1C` [I-627, N7-(2-methoxy-3-(1-methyl-1H-1,2,4-triazol-5-yl)phenyl)-2-methyl-N5-(6-(trifluoromethyl)pyridin-2-yl)-3H-imidazo[4,5-b]pyridine-5,7-diamine], with 1000 to 10000 pM; and `COc1c(Nc2cc(Nc3ccc4c(n3)C(F)(F)CC4)nc3[nH]c(C)nc23)cccc1-c1ncnn1C` [I-628, N5-(7,7-difluoro-6,7-dihydro-5H-cyclopenta[b]pyridin-2-yl)-N7-(2-methoxy-3-(1-methyl-1H-1,2,4-triazol-5-yl)phenyl)-2-methyl-3H-imidazo[4,5-b]pyridine-5,7-diamine], with 500 to 1000 pM; and `COc1c(Nc2cc(Nc3ccc4c(n3)C(F)(F)CC4)nc3[nH]c(C)nc23)cccc1-c1cnn(C)n1` [I-629, N5-(7,7-difluoro-6,7-dihydro-5H-cyclopenta[b]pyridin-2-yl)-N7-(2-methoxy-3-(2-methyl-2H-1,2,3-triazol-4-yl)phenyl)-2-methyl-3H-imidazo[4,5-b]pyridine-5,7-diamine], with 500 to 1000 pM. Next, `C#Cc1cccc(Nc2cc(Nc3ccc(F)cc3S(C)(=O)=O)c3nc(C)[nH]c3n2)n1` [I-630, N5-(6-ethynylpyridin-2-yl)-N7-(4-fluoro-2-(methylsulfonyl)phenyl)-2-methyl-3H-imidazo[4,5-b]pyridine-5,7-diamine]: under 100 pM. Then `CN=S(C)(=O)c1cc(-c2cnn(C)c2C)ccc1Nc1cc(NC(=O)C2CC2)nc2[nH]c(C(F)F)nc12` (centres unmarked) [I-631, N-(2-(difluoromethyl)-7-((4-(1,5-dimethyl-1H-pyrazol-4-yl)-2-(N,S-dimethylsulfonimidoyl)phenyl)amino)-3H-imidazo[4,5-b]pyridin-5-yl)cyclopropanecarboxamide], with under 100 pM; and `CN=S(C)(=O)c1cc(-c2ccn(C)n2)ccc1Nc1cc(NC(=O)C2CC2)nc2[nH]c(C(F)F)nc12` (centres unmarked) [I-632], with 100 to 500 pM; and `CS(=O)(=O)c1cc(F)ccc1Nc1cc(Nc2cc3c(nn2)CCC3)nc2[nH]c(C(F)F)nc12` [I-633], with 100 to 500 pM. Regarding `CN=S(C)(=O)c1cc(-c2nc(COC)c(C)s2)ccc1Nc1cc(NC(=O)C2CC2)nc2[nH]c(C(F)F)nc12` (centres unmarked) [I-634], the Kd fell in the range of 100 to 500 pM. As to `COCc1ccc(Nc2cc(Nc3ccc(F)cc3S(C)(=O)=O)c3nc(C(F)F)[nH]c3n2)nn1` [I-635], the Kd is 100 to 500 pM. The molecule `COCc1ccc(Nc2cc(Nc3ccc(F)cc3S(C)(=O)=O)c3nc(C)[nH]c3n2)nn1` [I-636] came in with a dissociation constant Kd of 100 to 500 pM.

`CN=[S@@](C)(=O)c1cc(-c2cnn(C)c2C)ccc1Nc1cc(NC(=O)C2CC2)nc2[nH]c(C(F)F)nc12` [I-637] came in with a Kd of under 100 pM. Next, `CN=[S@](C)(=O)c1cc(-c2cnn(C)c2C)ccc1Nc1cc(NC(=O)C2CC2)nc2[nH]c(C(F)F)nc12` [I-638]: 100 to 500 pM; `Cc1nc2c(Nc3ccc(F)cc3S(C)(=O)=O)cc(Nc3cc4c(nn3)CCC4)nc2[nH]1` [I-639]: under 100 pM; `CN=S(C)(=O)c1cc(-c2ccn(C)n2)ccc1Nc1cc(NC(=O)C2CC2)nc2[nH]c(C)nc12` (centres unmarked) [I-640]: 100 to 500 pM. Next, `CN=S(C)(=O)c1cc(-c2nn(C)cc2C)ccc1Nc1cc(NC(=O)C2CC2)nc2[nH]c(C(F)F)nc12` (centres unmarked) [I-641]: under 100 pM; `Cc1cc(Nc2cc(Nc3ccc(C4CCC(C)(C)CO4)cc3S(C)(=O)=O)c3nc(C)[nH]c3n2)nc(C)n1` (centres unmarked) [I-642]: under 100 pM; `CS(=O)(=O)c1cc(F)ccc1Nc1cc(Nc2ccc3c(n2)CCOC3)nc2[nH]c(C(F)F)nc12` [I-643]: 100 to 500 pM. For `Cc1nc2c(Nc3ccc(F)cc3S(C)(=O)=O)cc(Nc3ccc4c(n3)CCOC4)nc2[nH]1` [I-644], the Kd is 100 to 500 pM. For the molecule `COc1c(Nc2cc(Nc3ccc4c(n3)CCOC4)nc3[nH]c(C(F)F)nc23)cccc1-c1ncnn1C` [I-645], the Kd lay within 1000 to 10000 pM. Then `COc1c(Nc2cc(Nc3ccc4c(n3)CCOC4)nc3[nH]c(C(F)F)nc23)cccc1-c1cnn(C)n1` [I-646], with 500 to 1000 pM; and `COc1c(Nc2cc(Nc3cc4c(nn3)CCC4)nc3[nH]c(C(F)F)nc23)cccc1-c1ncnn1C` [I-647], with 500 to 1000 pM; and `COc1c(Nc2cc(Nc3cc4c(nn3)CCC4)nc3[nH]c(C(F)F)nc23)cccc1-c1cnn(C)n1` [I-648], with 100 to 500 pM. Next, `CN=[S@@](C)(=O)c1cc(-c2nc(COC)c(C)s2)ccc1Nc1cc(NC(=O)C2CC2)nc2[nH]c(C(F)F)nc12` [I-649]: 1000 to 10000 pM; `CN=[S@](C)(=O)c1cc(-c2nc(COC)c(C)s2)ccc1Nc1cc(NC(=O)C2CC2)nc2[nH]c(C(F)F)nc12` [I-650]: 100 to 500 pM.
